Settings: Cohort 3 400 mg QD

## CC(C)NC(=O)COc1cccc(-c2nc(Nc3ccc4[nH]ncc4c3)c3ccccc3n2)c1 [Belumosudil, 2-{3-[4-(1H-indazol-5-ylamino)-2-quinazolinyl]phenoxy}-N-(propan-2-yl) acetamide]
  Glaucoma: Affected/At Risk (%): (0%)
  Glucose urine present: # Events: 3
  Glucose urine present: Affected/At Risk: 1/21
  Glucose urine present: Affected/At Risk (%): (4.76%)
  Graft versus host disease in gastrointestinal tract: # Events: 0
  Graft versus host disease in gastrointestinal tract: Affected/At Risk: 0/21
  Graft versus host disease in gastrointestinal tract: Affected/At Risk (%): (0%)
  Gynaecomastia: # Events: 0
  Gynaecomastia: Affected/At Risk: 0/21
  Gynaecomastia: Affected/At Risk (%): (0%)
  Haematuria: # Events: 2
  Haematuria: Affected/At Risk: 1/21
  Haematuria: Affected/At Risk (%): (4.76%)
  Hair growth abnormal: # Events: 0
  Hair growth abnormal: Affected/At Risk: 0/21
  Hair growth abnormal: Affected/At Risk (%): (0%)
  Headache: # Events: 8
  Headache: Affected/At Risk: 6/21
  Headache: Affected/At Risk (%): (28.57%)
  Hodgkin's disease recurrent: # Events: 0
  Hodgkin's disease recurrent: Affected/At Risk: 0/21
  Hodgkin's disease recurrent: Affected/At Risk (%): (0%)
  Hordeolum: # Events: 1
  Hordeolum: Affected/At Risk: 1/21
  Hordeolum: Affected/At Risk (%): (4.76%)
  Hot flush: # Events: 0
  Hot flush: Affected/At Risk: 0/21
  Hot flush: Affected/At Risk (%): (0%)
  Hyperglycemia: # Events: 8
  Hyperglycemia: Affected/At Risk: 3/21
  Hyperglycemia: Affected/At Risk (%): (14.29%)
  Hyperhidrosis: # Events: 1
  Hyperhidrosis: Affected/At Risk: 1/21
  Hyperhidrosis: Affected/At Risk (%): (4.76%)
  Hyperkalaemia: # Events: 4
  Hyperkalaemia: Affected/At Risk: 3/21
  Hyperkalaemia: Affected/At Risk (%): (14.29%)
  Hypertension: # Events: 6
  Hypertension: Affected/At Risk: 4/21
  Hypertension: Affected/At Risk (%): (19.05%)
  Hyperthyroidism: # Events: 1
  Hyperthyroidism: Affected/At Risk: 1/21
  Hyperthyroidism: Affected/At Risk (%): (4.76%)
  Hypertriglyceridaemia: # Events: 0
  Hypertriglyceridaemia: Affected/At Risk: 0/21
  Hypertriglyceridaemia: Affected/At Risk (%): (0%)
  Hyperuricaemia: # Events: 5
  Hyperuricaemia: Affected/At Risk: 3/21
  Hyperuricaemia: Affected/At Risk (%): (14.29%)
  Hypoaesthesia: # Events: 1
  Hypoaesthesia: Affected/At Risk: 1/21
  Hypoaesthesia: Affected/At Risk (%): (4.76%)
  Hypocalcaemia: # Events: 1
  Hypocalcaemia: Affected/At Risk: 1/21
  Hypocalcaemia: Affected/At Risk (%): (4.76%)
  Hypogonadism: # Events: 0
  Hypogonadism: Affected/At Risk: 0/21
  Hypogonadism: Affected/At Risk (%): (0%)
  Hypokalaemia: # Events: 0
  Hypokalaemia: Affected/At Risk: 0/21
  Hypokalaemia: Affected/At Risk (%): (0%)
  Hypomagnesaemia: # Events: 1
  Hypomagnesaemia: Affected/At Risk: 1/21
  Hypomagnesaemia: Affected/At Risk (%): (4.76%)
  Hyponatraemia: # Events: 2
  Hyponatraemia: Affected/At Risk: 2/21
  Hyponatraemia: Affected/At Risk (%): (9.52%)
  Hypophosphataemia: # Events: 1
  Hypophosphataemia: Affected/At Risk: 1/21
  Hypophosphataemia: Affected/At Risk (%): (4.76%)
  Hypothermia: # Events: 0
  Hypothermia: Affected/At Risk: 0/21
  Hypothermia: Affected/At Risk (%): (0%)
  Hypothyroidism: # Events: 4
  Hypothyroidism: Affected/At Risk: 3/21
  Hypothyroidism: Affected/At Risk (%): (14.29%)
  Hypoxia: # Events: 3
  Hypoxia: Affected/At Risk: 3/21
  Hypoxia: Affected/At Risk (%): (14.29%)
  Impaired healing: # Events: 0
  Impaired healing: Affected/At Risk: 0/21
  Impaired healing: Affected/At Risk (%): (0%)
  Influenza like illness: # Events: 0
  Influenza like illness: Affected/At Risk: 0/21
  Influenza like illness: Affected/At Risk (%): (0%)
  Influenza: # Events: 2
  Influenza: Affected/At Risk: 2/21
  Influenza: Affected/At Risk (%): (9.52%)
  Insomnia: # Events: 3
  Insomnia: Affected/At Risk: 3/21
  Insomnia: Affected/At Risk (%): (14.29%)
  Irritability: # Events: 0
  Irritability: Affected/At Risk: 0/21
  Irritability: Affected/At Risk (%): (0%)
  Joint range of motion decreased: # Events: 1
  Joint range of motion decreased: Affected/At Risk: 1/21
  Joint range of motion decreased: Affected/At Risk (%): (4.76%)
  Lacrimation increased: # Events: 0
  Lacrimation increased: Affected/At Risk: 0/21
  Lacrimation increased: Affected/At Risk (%): (0%)
  Leukaemia recurrent: # Events: 0
  Leukaemia recurrent: Affected/At Risk: 0/21
  Leukaemia recurrent: Affected/At Risk (%): (0%)
  Leukocytosis: # Events: 1
  Leukocytosis: Affected/At Risk: 1/21
  Leukocytosis: Affected/At Risk (%): (4.76%)
  Ligament sprain: # Events: 0
  Ligament sprain: Affected/At Risk: 0/21
  Ligament sprain: Affected/At Risk (%): (0%)
  Limb injury: # Events: 1
  Limb injury: Affected/At Risk: 1/21
  Limb injury: Affected/At Risk (%): (4.76%)
  Macular degeneration: # Events: 0
  Macular degeneration: Affected/At Risk: 0/21
  Macular degeneration: Affected/At Risk (%): (0%)
  Migraine: # Events: 0
  Migraine: Affected/At Risk: 0/21
  Migraine: Affected/At Risk (%): (0%)
  Muscle spasms: # Events: 6
  Muscle spasms: Affected/At Risk: 6/21
  Muscle spasms: Affected/At Risk (%): (28.57%)
  Muscle spasticity: # Events: 1
  Muscle spasticity: Affected/At Risk: 1/21
  Muscle spasticity: Affected/At Risk (%): (4.76%)
  Muscular weakness: # Events: 2
  Muscular weakness: Affected/At Risk: 2/21
  Muscular weakness: Affected/At Risk (%): (9.52%)
  Musculoskeletal chest pain: # Events: 1
  Musculoskeletal chest pain: Affected/At Risk: 1/21
  Musculoskeletal chest pain: Affected/At Risk (%): (4.76%)
  Myalgia: # Events: 3
  Myalgia: Affected/At Risk: 3/21
  Myalgia: Affected/At Risk (%): (14.29%)
  Nail disorder: # Events: 0
  Nail disorder: Affected/At Risk: 0/21
  Nail disorder: Affected/At Risk (%): (0%)
  Nasal congestion: # Events: 1
  Nasal congestion: Affected/At Risk: 1/21
  Nasal congestion: Affected/At Risk (%): (4.76%)
  Nausea: # Events: 12
  Nausea: Affected/At Risk: 9/21
  Nausea: Affected/At Risk (%): (42.86%)
  Neck pain: # Events: 0
  Neck pain: Affected/At Risk: 0/21
  Neck pain: Affected/At Risk (%): (0%)
  Nephrotic syndrome: # Events: 0
  Nephrotic syndrome: Affected/At Risk: 0/21
  Nephrotic syndrome: Affected/At Risk (%): (0%)
  Neuropathy peripheral: # Events: 2
  Neuropathy peripheral: Affected/At Risk: 1/21
  Neuropathy peripheral: Affected/At Risk (%): (4.76%)
  Neutrophil count decreased: # Events: 1
  Neutrophil count decreased: Affected/At Risk: 1/21
  Neutrophil count decreased: Affected/At Risk (%): (4.76%)
  Nocturia: # Events: 0
  Nocturia: Affected/At Risk: 0/21
  Nocturia: Affected/At Risk (%): (0%)
  Non-cardiac chest pain: # Events: 1
  Non-cardiac chest pain: Affected/At Risk: 1/21
  Non-cardiac chest pain: Affected/At Risk (%): (4.76%)
  Obesity: # Events: 0
  Obesity: Affected/At Risk: 0/21
  Obesity: Affected/At Risk (%): (0%)
  Oedema peripheral: # Events: 6
  Oedema peripheral: Affected/At Risk: 6/21
  Oedema peripheral: Affected/At Risk (%): (28.57%)
  Oedema: # Events: 0
  Oedema: Affected/At Risk: 0/21
  Oedema: Affected/At Risk (%): (0%)
  Oesophageal ulcer: # Events: 0
  Oesophageal ulcer: Affected/At Risk: 0/21
  Oesophageal ulcer: Affected/At Risk (%): (0%)
  Oral candidiasis: # Events: 0
  Oral candidiasis: Affected/At Risk: 0/21
  Oral candidiasis: Affected/At Risk (%): (0%)
  Oropharyngeal pain: # Events: 1
  Oropharyngeal pain: Affected/At Risk: 1/21
  Oropharyngeal pain: Affected/At Risk (%): (4.76%)
  Orthopnoea: # Events: 0
  Orthopnoea: Affected/At Risk: 0/21
  Orthopnoea: Affected/At Risk (%): (0%)
  Osteonecrosis: # Events: 0
  Osteonecrosis: Affected/At Risk: 0/21
  Osteonecrosis: Affected/At Risk (%): (0%)
  Osteopenia: # Events: 0
  Osteopenia: Affected/At Risk: 0/21
  Osteopenia: Affected/At Risk (%): (0%)
  Osteoporosis: # Events: 0
  Osteoporosis: Affected/At Risk: 0/21
  Osteoporosis: Affected/At Risk (%): (0%)
  Overdose: # Events: 0
  Overdose: Affected/At Risk: 0/21
  Overdose: Affected/At Risk (%): (0%)
  Pain in extremity: # Events: 5
  Pain in extremity: Affected/At Risk: 4/21
  Pain in extremity: Affected/At Risk (%): (19.05%)
  Pain: # Events: 1
  Pain: Affected/At Risk: 1/21
  Pain: Affected/At Risk (%): (4.76%)
  Palpitations: # Events: 1
  Palpitations: Affected/At Risk: 1/21
  Palpitations: Affected/At Risk (%): (4.76%)
  Paraesthesia: # Events: 1
  Paraesthesia: Affected/At Risk: 1/21
  Paraesthesia: Affected/At Risk (%): (4.76%)
  Participants with TEAE: 20 (95%) participants
  Participants with TESAE: 13 (62%) participants
  Pericardial effusion: # Events: 0
  Pericardial effusion: Affected/At Risk: 0/21
  Pericardial effusion: Affected/At Risk (%): (0%)
  Peripheral coldness: # Events: 0
  Peripheral coldness: Affected/At Risk: 0/21
  Peripheral coldness: Affected/At Risk (%): (0%)
  Peripheral sensory neuropathy: # Events: 0
  Peripheral sensory neuropathy: Affected/At Risk: 0/21
  Peripheral sensory neuropathy: Affected/At Risk (%): (0%)
  Phlebitis: # Events: 0
  Phlebitis: Affected/At Risk: 0/21
  Phlebitis: Affected/At Risk (%): (0%)
  Photophobia: # Events: 2
  Photophobia: Affected/At Risk: 2/21
  Photophobia: Affected/At Risk (%): (9.52%)
  Platelet count decreased: # Events: 0
  Platelet count decreased: Affected/At Risk: 0/21
  Platelet count decreased: Affected/At Risk (%): (0%)
  Pleural effusion: # Events: 1
  Pleural effusion: Affected/At Risk: 1/21
  Pleural effusion: Affected/At Risk (%): (4.76%)
  Pneumonia respiratory syncytial viral: # Events: 0
  Pneumonia respiratory syncytial viral: Affected/At Risk: 0/21
  Pneumonia respiratory syncytial viral: Affected/At Risk (%): (0%)
  Pneumonia: # Events: 0
  Pneumonia: Affected/At Risk: 0/21
  Pneumonia: Affected/At Risk (%): (0%)
  Pollakiuria: # Events: 0
  Pollakiuria: Affected/At Risk: 0/21
  Pollakiuria: Affected/At Risk (%): (0%)
  Presyncope: # Events: 0
  Presyncope: Affected/At Risk: 0/21
  Presyncope: Affected/At Risk (%): (0%)
  Productive cough: # Events: 2
  Productive cough: Affected/At Risk: 1/21
  Productive cough: Affected/At Risk (%): (4.76%)
  Proteinuria: # Events: 0
  Proteinuria: Affected/At Risk: 0/21
  Proteinuria: Affected/At Risk (%): (0%)
  Pruritus: # Events: 0
  Pruritus: Affected/At Risk: 0/21
  Pruritus: Affected/At Risk (%): (0%)
  Pseudomonas infection: # Events: 0
  Pseudomonas infection: Affected/At Risk: 0/21
  Pseudomonas infection: Affected/At Risk (%): (0%)
  Pulmonary mass: # Events: 1
  Pulmonary mass: Affected/At Risk: 1/21
  Pulmonary mass: Affected/At Risk (%): (4.76%)
  Pyrexia: # Events: 3
  Pyrexia: Affected/At Risk: 3/21
  Pyrexia: Affected/At Risk (%): (14.29%)
  Rash erythematous: # Events: 0
  Rash erythematous: Affected/At Risk: 0/21
  Rash erythematous: Affected/At Risk (%): (0%)
  Rash maculo-papular: # Events: 0
  Rash maculo-papular: Affected/At Risk: 0/21
  Rash maculo-papular: Affected/At Risk (%): (0%)
  Rash pustular: # Events: 0
  Rash pustular: Affected/At Risk: 0/21
  Rash pustular: Affected/At Risk (%): (0%)
  Rash: # Events: 1
  Rash: Affected/At Risk: 1/21
  Rash: Affected/At Risk (%): (4.76%)
  Red blood cells urine positive: # Events: 0
  Red blood cells urine positive: Affected/At Risk: 0/21
  Red blood cells urine positive: Affected/At Risk (%): (0%)
  Renal failure: # Events: 0

Source: patent US20250255867A1 (Kadmon Corporation, LLC, priority 2022, published 2025)
